Data: patent US20230390396A1, “COMPOSITION CONTAINING 5-AMINOLEVULINIC ACID HYDROCHLORIDE” (priority 2020, published 2023)

Legend:
[1] = Antioxidative activity (DPPH radical scavenging, modified Blois method); details: 2 mL sample + 2 mL 0.2 mM DPPH, 30 minutes, absorbance at 517 nm
Procedure: Radical scavenging activity was used using the cosmetic composition for acne skin improvement according to the example as a sample.
The antioxidative activity (electron donation ability, EDA %) of a sample was measured by modifying the Blois method. 2 mL of the sample was mixed with 2 mL of a 0.2 mM DPPH(1,1-diphenyl-2-picryl hydrazyl) solution, and then allowed to stand for 30 minutes, followed by measuring an absorbance at 517 nm.
The radical scavenging activity was expressed as the rate of decrease in absorbance between the sample-added group and the non-added group. The radical scavenging activity was calculated according to the following equation, and results are summarized in [Table 2] below. As a sample for the control, BHT (synthetic antioxidant) was used.
Radical scavenging activity (%)=(1−Absorbance of sample-added group/Absorbance of non-added group)×100

[2] = tested on: patient's brain tumor area; assay: Fluorescence visualization of brain tumor after drinking 5-aminolevulinic acid hydrochloride; type: in vivo, human; details: 19 mg/kg oral, 3 hours before induction of anesthesia, operation 6 hours after drinking; FIG. 1

SMILES | Radical scavenging activity [1] [%] | Fluorescence of patient's brain tumor area at surgery [2]
Cc1cc(C(C)(C)C)c(O)c(C(C)(C)C)c1 [Control, BHT] | 55.3 ± 0.45 | 
Cl.NCC(=O)CCC(=O)O [5-aminolevulinic acid hydrochloride] |  | emitting a fluorescent color
